According to BigSolDB 2.1:

Structure (SMILES): OC[C@H]1O[C@@H](c2ccc(Cl)c(Cc3ccc(O[C@H]4CCOC4)cc3)c2)[C@H](O)[C@@H](O)[C@@H]1O
- solubility (mole fraction) (in DMF, 278.15 K): 0.00117
- solubility (mole fraction) (in DMF, 283.15 K): 0.00124
- solubility (mole fraction) (in DMF, 288.15 K): 0.00129
- solubility (mole fraction) (in DMF, 293.15 K): 0.00134
- solubility (mole fraction) (in DMF, 298.15 K): 0.00142
- solubility (mole fraction) (in DMF, 303.15 K): 0.00149
- solubility (mole fraction) (in DMF, 308.15 K): 0.00158
- solubility (mole fraction) (in DMF, 313.15 K): 0.00165
- solubility (mole fraction) (in DMF, 318.15 K): 0.00171
- solubility (mole fraction) (in acetonitrile, 278.15 K): 6.19e-07
- solubility (mole fraction) (in acetonitrile, 283.15 K): 9.85e-07
- solubility (mole fraction) (in acetonitrile, 288.15 K): 1.46e-06
- solubility (mole fraction) (in acetonitrile, 293.15 K): 1.97e-06
- solubility (mole fraction) (in acetonitrile, 298.15 K): 2.62e-06
- solubility (mole fraction) (in acetonitrile, 303.15 K): 3.52e-06
- solubility (mole fraction) (in acetonitrile, 308.15 K): 4.87e-06
- solubility (mole fraction) (in acetonitrile, 313.15 K): 6.15e-06
- solubility (mole fraction) (in acetonitrile, 318.15 K): 8.16e-06
- solubility (mole fraction) (in ethanol, 278.15 K): 2.33e-06
- solubility (mole fraction) (in ethanol, 283.15 K): 3.77e-06
- solubility (mole fraction) (in ethanol, 288.15 K): 4.84e-06
- solubility (mole fraction) (in ethanol, 293.15 K): 6.6e-06
- solubility (mole fraction) (in ethanol, 298.15 K): 8.45e-06
- solubility (mole fraction) (in ethanol, 303.15 K): 1.1e-05
- solubility (mole fraction) (in ethanol, 308.15 K): 1.4e-05
- solubility (mole fraction) (in ethanol, 313.15 K): 1.85e-05
- solubility (mole fraction) (in ethanol, 318.15 K): 2.43e-05
- solubility (mole fraction) (in ethyl acetate, 278.15 K): 7.16e-07
- solubility (mole fraction) (in ethyl acetate, 283.15 K): 1.07e-06
- solubility (mole fraction) (in ethyl acetate, 288.15 K): 1.42e-06
- solubility (mole fraction) (in ethyl acetate, 293.15 K): 1.97e-06
- solubility (mole fraction) (in ethyl acetate, 298.15 K): 2.56e-06
- solubility (mole fraction) (in ethyl acetate, 303.15 K): 3.12e-06
- solubility (mole fraction) (in ethyl acetate, 308.15 K): 4.27e-06
- solubility (mole fraction) (in ethyl acetate, 313.15 K): 5.56e-06
- solubility (mole fraction) (in ethyl acetate, 318.15 K): 6.89e-06
- solubility (mole fraction) (in ethylene glycol, 278.15 K): 1.16e-05
- solubility (mole fraction) (in ethylene glycol, 283.15 K): 1.48e-05
- solubility (mole fraction) (in ethylene glycol, 288.15 K): 1.91e-05
- solubility (mole fraction) (in ethylene glycol, 293.15 K): 2.43e-05
- solubility (mole fraction) (in ethylene glycol, 298.15 K): 3.41e-05
- solubility (mole fraction) (in ethylene glycol, 303.15 K): 4.21e-05
- solubility (mole fraction) (in ethylene glycol, 308.15 K): 5.91e-05
- solubility (mole fraction) (in ethylene glycol, 313.15 K): 7.01e-05
- solubility (mole fraction) (in ethylene glycol, 318.15 K): 8.59e-05
- solubility (mole fraction) (in formamide, 278.15 K): 8.05e-05
- solubility (mole fraction) (in formamide, 283.15 K): 9.2e-05
- solubility (mole fraction) (in formamide, 288.15 K): 0.000108
- solubility (mole fraction) (in formamide, 293.15 K): 0.000122
- solubility (mole fraction) (in formamide, 298.15 K): 0.000143
- solubility (mole fraction) (in formamide, 303.15 K): 0.000174
- solubility (mole fraction) (in formamide, 308.15 K): 0.000202
- solubility (mole fraction) (in formamide, 313.15 K): 0.000248
- solubility (mole fraction) (in formamide, 318.15 K): 0.000303
- solubility (mole fraction) (in methanol, 278.15 K): 1.77e-05
- solubility (mole fraction) (in methanol, 283.15 K): 2.48e-05
- solubility (mole fraction) (in methanol, 288.15 K): 3e-05
- solubility (mole fraction) (in methanol, 293.15 K): 3.65e-05
- solubility (mole fraction) (in methanol, 298.15 K): 4.46e-05
- solubility (mole fraction) (in methanol, 303.15 K): 5.54e-05
- solubility (mole fraction) (in methanol, 308.15 K): 6.9e-05
- solubility (mole fraction) (in methanol, 313.15 K): 8.53e-05
- solubility (mole fraction) (in methanol, 318.15 K): 0.00011
- solubility (mole fraction) (in n-butanol, 278.15 K): 1.81e-06
- solubility (mole fraction) (in n-butanol, 283.15 K): 2.73e-06
- solubility (mole fraction) (in n-butanol, 288.15 K): 4.04e-06
- solubility (mole fraction) (in n-butanol, 293.15 K): 5.9e-06
- solubility (mole fraction) (in n-butanol, 298.15 K): 8.49e-06
- solubility (mole fraction) (in n-butanol, 303.15 K): 1.2e-05
- solubility (mole fraction) (in n-butanol, 308.15 K): 1.62e-05
- solubility (mole fraction) (in n-butanol, 313.15 K): 2.21e-05
- solubility (mole fraction) (in n-butanol, 318.15 K): 3.02e-05
- solubility (mole fraction) (in n-propanol, 278.15 K): 1.59e-06
- solubility (mole fraction) (in n-propanol, 283.15 K): 2.43e-06
- solubility (mole fraction) (in n-propanol, 288.15 K): 3.39e-06
- solubility (mole fraction) (in n-propanol, 293.15 K): 4.54e-06
- solubility (mole fraction) (in n-propanol, 298.15 K): 6.09e-06
- solubility (mole fraction) (in n-propanol, 303.15 K): 7.88e-06
- solubility (mole fraction) (in n-propanol, 308.15 K): 1.04e-05
- solubility (mole fraction) (in n-propanol, 313.15 K): 1.43e-05
- solubility (mole fraction) (in n-propanol, 318.15 K): 1.99e-05
